Test results taken from ChEMBL document CHEMBL1201862, “PubChem BioAssay data set” (2004).
Activity calls are given as the source filed them. Rule as the data show it, for most assays here: actives have a measured EC50 and inactives only a lower limit.

Assays:
[1] = system: Streptococcus sp. 'group A'; assay: growth inhibition of control SK(-) GAS strain, dose response, counter-screen for streptokinase expression inhibitor project, luminescence, kanamycin, BacTiterGlo, confirmation (AID 1900); assay type: functional, organism-based
Streptococcus = assay: Group A Streptococcus viability loss, dose response, counter-screen for streptokinase expression inhibitor project, luminescence, BacTiterGlo (AID 1915); assay type: functional, organism-based;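 also: potency for reduction of bacterial viability or growth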
Streptokinase A = target: T1, Streptokinase A (Streptococcus pyogenes serotype M1, UniProt P10520); assay: S. pyogenes streptokinase expression inhibitors, potency, dose response, plasminogen activation absorbance, OD405 (AID 1914); assay type: functional, Streptococcus pyogenes M1 GAS;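 also: secreted streptokinase activity via plasminogen activation per viability signal from cell pellet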
T1 sequence (P10520 whole entry): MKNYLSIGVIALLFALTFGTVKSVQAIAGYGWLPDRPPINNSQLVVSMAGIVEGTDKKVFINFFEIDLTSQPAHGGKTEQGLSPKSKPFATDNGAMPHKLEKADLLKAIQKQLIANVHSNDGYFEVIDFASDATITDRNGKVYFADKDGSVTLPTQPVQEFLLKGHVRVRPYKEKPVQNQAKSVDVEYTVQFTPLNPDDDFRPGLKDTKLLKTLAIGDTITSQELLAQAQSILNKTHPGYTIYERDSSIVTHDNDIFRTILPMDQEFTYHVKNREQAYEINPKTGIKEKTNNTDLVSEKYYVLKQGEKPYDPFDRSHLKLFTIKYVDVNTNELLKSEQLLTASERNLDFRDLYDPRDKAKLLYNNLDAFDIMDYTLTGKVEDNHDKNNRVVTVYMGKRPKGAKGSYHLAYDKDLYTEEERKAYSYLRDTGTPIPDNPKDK

[2] = cytotoxicity toward NIH3T3 fibroblasts, dose response, counter-screen, cell-based, ATP luminescence, mouse fibroblasts (AID 2010); assay type: functional;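 also: cells exposed to compound for about 90 hours before reading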
[3] = inhibitors of intracellular T. cruzi replication, confirmation, NIH3T3 host cells, beta-gal luminescence (AID 2044); assay type: functional, cell-based;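 also: intracellular parasites grown in NIH/3T3 mouse fibroblasts as host cells; luminescent beta-galactosidase reporter signal from transgenic T. cruzi replicating inside host cells; inhibitors lower the luminescence signal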
Cytochrome P450 2D6 = Cytochrome P450 2D6 (Homo sapiens, UniProt P10635);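 also: CYP2D6 member of a cytochrome P450 panel assay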
INS1 = assay: beta cell apoptosis inhibitors, cytokine rescue, dose response, luminescence, retest (AID 449756); assay type: functional, cell-based; details: Rattus norvegicus;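 also: cell death triggered by IL-1 beta plus TNF-alpha plus IFN-gamma mixture; protective hits raise ATP signal compared with cytokine alone wells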
[4] = target: T2, Heat shock factor protein 1 (Mus musculus, UniProt P38532); assay: inhibition of MG132-induced HSE-luciferase signal, confirmation, cell-based, NIH3T3, luminescence, dose retest (AID 2382); assay type: functional;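 also: NIH3T3 fibroblasts with HSF1-driven luciferase reporter stressed by proteasome inhibitor MG132; luminescence from HSF1-driven luciferase expression after 8 hours of MG132 stress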
T2 sequence (P38532 whole entry): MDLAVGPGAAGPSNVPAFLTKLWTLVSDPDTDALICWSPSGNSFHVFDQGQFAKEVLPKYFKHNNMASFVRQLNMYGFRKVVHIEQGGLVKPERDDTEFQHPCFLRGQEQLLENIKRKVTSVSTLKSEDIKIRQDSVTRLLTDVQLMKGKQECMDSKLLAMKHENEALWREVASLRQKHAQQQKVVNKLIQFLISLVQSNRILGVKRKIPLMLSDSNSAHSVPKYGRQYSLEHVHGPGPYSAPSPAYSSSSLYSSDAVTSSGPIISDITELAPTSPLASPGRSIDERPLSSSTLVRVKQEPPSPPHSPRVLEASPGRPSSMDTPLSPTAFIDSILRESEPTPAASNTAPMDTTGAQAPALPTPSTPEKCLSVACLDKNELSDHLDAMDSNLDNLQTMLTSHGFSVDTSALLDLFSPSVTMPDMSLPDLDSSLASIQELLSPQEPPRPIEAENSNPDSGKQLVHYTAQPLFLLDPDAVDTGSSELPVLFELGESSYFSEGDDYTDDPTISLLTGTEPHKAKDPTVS

[5] = Luminescence Cell-Based Dose Response HTS to Identify Inhibitors of 5'UTR Stem-Loop Driven Prion Protein mRNA Translation in H4 Neuroglioblastoma Cells. [Related pubchem assays: 1827 (Project Summary), 1813 (Primary HTS)]; assay type: functional
[6] = inhibitors of firefly luciferase expression or activity, dose response, H4 neuroglioma cells, luminescence (AID 1990); assay type: functional, cell-based

Chain of Cytochrome P450 2D6 (P10635 whole entry): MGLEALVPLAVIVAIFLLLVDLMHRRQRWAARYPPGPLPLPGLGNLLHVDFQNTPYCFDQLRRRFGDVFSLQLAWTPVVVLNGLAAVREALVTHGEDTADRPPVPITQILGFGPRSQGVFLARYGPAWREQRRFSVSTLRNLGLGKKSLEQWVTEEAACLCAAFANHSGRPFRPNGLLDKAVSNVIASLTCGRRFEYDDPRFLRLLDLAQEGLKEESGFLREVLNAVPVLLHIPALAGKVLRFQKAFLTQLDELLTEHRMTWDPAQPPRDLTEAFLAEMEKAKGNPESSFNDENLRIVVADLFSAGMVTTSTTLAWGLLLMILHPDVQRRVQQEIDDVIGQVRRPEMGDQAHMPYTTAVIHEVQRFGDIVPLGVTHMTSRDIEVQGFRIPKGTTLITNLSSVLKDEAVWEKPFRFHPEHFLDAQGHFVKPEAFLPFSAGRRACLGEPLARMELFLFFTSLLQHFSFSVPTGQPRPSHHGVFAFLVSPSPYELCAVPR

## CC1CCN(c2nc(-c3ccc(F)cc3)cc(C(F)(F)F)n2)CC1
[1]
  EC50: 11.6 µM (active)
Streptococcus
  EC50: 17.5 µM (active)
Streptokinase A
  EC50: 4.61 µM (active)

## O=C(c1ccccc1)c1ccc(OCCCN2CCCC2)cc1
[2]
  EC50: > 60 µM (not active)
[3]
  EC50: 889 nM (active)

## CCC1Oc2ccc(C)cc2N(CC(=O)N(Cc2cccnc2)Cc2ccc(C)o2)C1=O (stereo not drawn)
[2]
  EC50: > 30 µM (not active)
[3]
  EC50: 166 nM (active)

## Cc1ccc(C(=O)N2CCOCC2)cc1Cl
[1]
  EC50: > 150 µM (not active)
Streptococcus
  EC50: > 150 µM (not active)
Streptokinase A
  EC50: > 150 µM (not active)

## CC(C)C(=O)N1CCN(c2ccccc2NC(=O)COc2ccc(C3CCCCC3)cc2)CC1
[1]
  EC50: 15.8 µM (active)
Streptococcus
  EC50: > 150 µM (not active)
Streptokinase A
  EC50: 18.9 µM (inconclusive)

## COC(=O)c1[nH]c2cc(C)ccc2c1NC(=O)CN1CCCc2ccccc21
[2]
  EC50: > 60 µM (not active)
[3]
  EC50: 990 nM (active)

## CCCCn1c(N)c(N(CCC(C)C)C(=O)c2ccc([N+](=O)[O-])s2)c(=O)[nH]c1=O
[2]
  EC50: > 60 µM (not active)
[3]
  EC50: 997 nM (active)

## c1csc(CN2CC3(CCNCC3)C2)n1
Cytochrome P450 2D6
  AC50: 39.8 µM (inconclusive)

## COc1ccc(NC(=O)c2ccc3c(c2)NC(=O)CS3)cc1S(=O)(=O)Nc1ccc(Br)cc1
[1]
  EC50: 4.17 µM (active)
Streptococcus
  EC50: 26.3 µM (active)
Streptokinase A
  EC50: > 150 µM (not active)

## COc1ccccc1CN1CN(S(=O)(=O)c2ccccc2)c2nc3ccccc3nc21
[1]
  EC50: 47.6 µM (active)
Streptococcus
  EC50: > 150 µM (not active)
Streptokinase A
  EC50: 55.1 µM (active)

## Cc1ccccc1NC(S)=NCC1CCN(C(C)c2ccccc2)C1 (stereo not drawn)
[2]
  EC50: > 60 µM (not active)
[3]
  EC50: 1100 nM (active)

## COc1cccc(/C=N/NC(=O)CNC(=O)c2cccs2)c1O
INS1
  AC50: 7.39 µM (active)

## CC(/C=C/c1ccc(N(C)C)cc1)=N\NC1=NC(=O)CC(C(=O)Nc2ccccc2)S1 (stereo not drawn)
[1]
  EC50: 2.94 µM (active)
Streptococcus
  EC50: 9.04 µM (active)
Streptokinase A
  EC50: > 150 µM (not active)

## COc1cc(NC(=O)CN(C)S(=O)(=O)c2ccc3c(c2)CC(C)N3C(C)=O)cc(OC)c1 (stereo not drawn)
[4]
  EC50: > 195 µM (not active)

## Cc1ccc(O)c(C(=O)CC(=O)c2ccc(C(C)(C)C)cc2)c1
[1]
  EC50: 1.63 µM (active)
Streptococcus
  EC50: 3.66 µM (active)

## COc1ccc(O)c(C(=O)c2cnc3nc4ccccc4n3c2)c1
INS1
  AC50: 1.23 µM (active)

## CCCNC(=O)CSc1nc(-c2cccs2)cc(C(F)(F)F)n1
Cytochrome P450 2D6
  AC50: 3.16 µM (inconclusive)

## Cc1c(CCOC(=O)c2cc([N+](=O)[O-])cc([N+](=O)[O-])c2)sc[n+]1CC(=O)c1ccccc1
[2]
  EC50: > 60 µM (not active)
[3]
  EC50: 1970 nM (active)

## NC(=O)COc1ccc(-n2cnnn2)cc1
[4]
  EC50: > 195 µM (not active)

## COc1ccc(C(=O)N/N=C(\C)Cn2cnc([N+](=O)[O-])n2)cc1
[2]
  EC50: > 60 µM (not active)
[3]
  EC50: 1030 nM (active)

## O=C(CSc1nnc(SCc2cccc3ccccc23)s1)c1ccc2c(c1)OCO2
Cytochrome P450 2D6
  AC50: 7.94 µM (inconclusive)

## Cc1cc(C)c2cc(CN(CCO)C(=O)Nc3ccc(Cl)cc3)c(O)nc2c1
[5]
  EC50: 33.3 µM (active)
[6]
  EC50: 15.8 µM (active)

## CN1C(=O)C(=Cc2ccc(N3CCCCCC3)o2)C(=O)N(C)C1=S
Cytochrome P450 2D6
  AC50: 20 µM (inconclusive)

## C[N+]1(C)[C@@H]2CC[C@H]1CC(OC(=O)c1c[nH]c3ccccc13)C2 (stereo partly drawn)
Cytochrome P450 2D6
  AC50: 31.6 µM (inconclusive)

## Cc1cccc(NC(=O)c2ccc([N+](=O)[O-])s2)c1C
INS1
  AC50: 12 µM (active)
[2]
  EC50: > 60 µM (not active)
[3]
  EC50: 691 nM (active)

## CC(C)(C)NC(=O)CSC(=Nc1ccc(F)cc1)NC#N
Cytochrome P450 2D6
  AC50: 25.1 µM (inconclusive)

## O=C(c1ccco1)N(CCCN1CCOCC1)c1nc(-c2ccc(F)cc2)cs1
[2]
  EC50: 30.5 µM (active)
[3]
  EC50: 1280 nM (active)

## COc1cc(CCCN2CCNC[C@@H]2Cc2ccc(O)cc2)cc(OC)c1OC
[4]
  EC50: > 195 µM (not active)

## CN(C)S(=O)(=O)c1ccc(-c2csnn2)s1
[4]
  EC50: > 195 µM (not active)
